Reference: PubChem BioAssay (NCI)
“And” between values parts separate entries of the source, which are not always exact repeats. Equal entries are not always repeated.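 In this assay, cells in 96-well plates receive the compound at five concentrations for 48 hours. Endpoints are linearly interpolated between the surrounding concentrations. At the GI50, growth is halved. Definition used: TGI = concentration required for complete inhibition of growth.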

What was measured:
Test in all cases: NCI tumour cell line growth inhibition, 48 h
HOP-18 NSCLC = test system: HOP-18 NSCLC
SK-OV-3 ovarian = test system: SK-OV-3 ovarian
RPMI-8226 leukemia = test system: RPMI-8226 leukemia
M14 melanoma = test system: M14 melanoma
KM12 colon = test system: KM12 colon
SK-MEL-28 melanoma = test system: SK-MEL-28 melanoma
HOP-62 NSCLC = test system: HOP-62 NSCLC
NCI-H226 lung = test system: NCI-H226 lung
HL-60(TB) leukemia = test system: HL-60(TB) leukemia
RXF 393 renal = test system: RXF 393 renal
EKVX NSCLC = test system: EKVX NSCLC
HCT-116 colon = test system: HCT-116 colon
SN12C renal = test system: SN12C renal
DLD-1 colon = test system: DLD-1 colon
OVCAR-4 ovarian = test system: OVCAR-4 ovarian
CAKI-1 renal = test system: CAKI-1 renal
SNB-19 CNS = test system: SNB-19 CNS
UACC-62 melanoma = test system: UACC-62 melanoma
HT29 colon = test system: HT29 colon
SF-268 CNS = test system: SF-268 CNS
COLO 205 colon = test system: COLO 205 colon
M19-MEL melanoma = test system: M19-MEL melanoma
SF-295 CNS = test system: SF-295 CNS
OVCAR-5 ovarian = test system: OVCAR-5 ovarian
HCT-15 colon = test system: HCT-15 colon
UACC-257 melanoma = test system: UACC-257 melanoma
SNB-78 CNS = test system: SNB-78 CNS
NCI-H23 lung = test system: NCI-H23 lung
UO-31 renal = test system: UO-31 renal
SF-539 CNS = test system: SF-539 CNS
786-0 renal = test system: 786-0 renal
MALME-3M melanoma = test system: MALME-3M melanoma
DMS 114 small cell lung = test system: DMS 114 small cell lung
OVCAR-3 ovarian = test system: OVCAR-3 ovarian
SNB-75 CNS = test system: SNB-75 CNS
OVCAR-8 ovarian = test system: OVCAR-8 ovarian
DMS 273 small cell lung = test system: DMS 273 small cell lung
LOX IMVI melanoma = test system: LOX IMVI melanoma
RXF-631 renal = test system: RXF-631 renal
IGROV1 ovarian = test system: IGROV1 ovarian
HOP-92 NSCLC = test system: HOP-92 NSCLC
K-562 leukemia = test system: K-562 leukemia
TK-10 renal = test system: TK-10 renal
SK-MEL-5 melanoma = test system: SK-MEL-5 melanoma
HCC-2998 colon = test system: HCC-2998 colon
A498 renal = test system: A498 renal
MOLT-4 leukemia = test system: MOLT-4 leukemia
ACHN renal = test system: ACHN renal
SW-620 colon = test system: SW-620 colon
U251 CNS = test system: U251 CNS
NCI-H460 lung = test system: NCI-H460 lung
A549 NSCLC = test system: A549 NSCLC
CCRF-CEM leukemia = test system: CCRF-CEM leukemia
SK-MEL-2 melanoma = test system: SK-MEL-2 melanoma
SR leukemia = test system: SR leukemia
PC-3 prostate = test system: PC-3 prostate
MDA-MB-435 = test system: MDA-MB-435
MCF7 breast = test system: MCF7 breast
MDA-MB-231 breast = test system: MDA-MB-231 breast
LXFL 529 NSCLC = test system: LXFL 529 NSCLC
MDA-N = test system: MDA-N
NCI-H522 lung = test system: NCI-H522 lung
KM20L2 colon = test system: KM20L2 colon

In the case of `O=C1CCC(O)=C1N=Nc1cc(Cl)cc(Cl)c1`, the TGI (HOP-18 NSCLC) is reported as > 100 µM, the TGI (SK-OV-3 ovarian) is reported as > 100 µM and the TGI (RPMI-8226 leukemia) is reported as > 100 µM. The TGI (M14 melanoma) was > 100 µM, the TGI (KM12 colon) was > 100 µM and the TGI (SK-MEL-28 melanoma) was > 100 µM. For the same compound, the TGI (HOP-62 NSCLC) was > 100 µM, the TGI (NCI-H226 lung) was > 100 µM and the TGI (HL-60(TB) leukemia) was > 100 µM. For the same compound, the TGI (RXF 393 renal) was > 100 µM, the TGI (EKVX NSCLC) was > 100 µM and the TGI (HCT-116 colon) was > 100 µM. The TGI (SN12C renal) was > 100 µM, the TGI (DLD-1 colon) was > 100 µM and the TGI (OVCAR-4 ovarian) was > 100 µM. The TGI (CAKI-1 renal) was > 100 µM, the TGI (SNB-19 CNS) was > 100 µM and the TGI (UACC-62 melanoma) was > 100 µM. For the same compound, the TGI (HT29 colon) was > 100 µM, the TGI (SF-268 CNS) was > 100 µM and the TGI (COLO 205 colon) was > 100 µM. For the same compound, the TGI (M19-MEL melanoma) was > 100 µM, the TGI (SF-295 CNS) was > 100 µM and the TGI (OVCAR-5 ovarian) was > 100 µM. For the same compound, the TGI (HCT-15 colon) was > 100 µM, the TGI (UACC-257 melanoma) was > 100 µM and the TGI (SNB-78 CNS) was > 100 µM. For the same compound, the TGI (NCI-H23 lung) was > 100 µM, the TGI (UO-31 renal) was > 100 µM and the TGI (SF-539 CNS) was > 100 µM. The TGI (786-0 renal) was > 100 µM, the TGI (MALME-3M melanoma) was > 100 µM and the TGI (DMS 114 small cell lung) was > 100 µM. The TGI (OVCAR-3 ovarian) was 98.2 µM, the TGI (SNB-75 CNS) was > 100 µM and the TGI (OVCAR-8 ovarian) was > 100 µM. The TGI (DMS 273 small cell lung) was > 100 µM, the TGI (LOX IMVI melanoma) was > 100 µM and the TGI (RXF-631 renal) was > 100 µM. The TGI (IGROV1 ovarian) was > 100 µM, the TGI (HOP-92 NSCLC) was > 100 µM and the TGI (K-562 leukemia) was > 100 µM. The TGI (TK-10 renal) was > 100 µM, the TGI (SK-MEL-5 melanoma) was > 100 µM and the TGI (HCC-2998 colon) was > 100 µM. The TGI (A498 renal) was 91 µM, the TGI (MOLT-4 leukemia) was > 100 µM and the TGI (ACHN renal) was > 100 µM. For the same compound, the TGI (SW-620 colon) was > 100 µM, the TGI (U251 CNS) was > 100 µM and the TGI (NCI-H460 lung) was > 100 µM. The TGI (A549 NSCLC) was > 100 µM, the TGI (CCRF-CEM leukemia) was > 100 µM and the TGI (SK-MEL-2 melanoma) was > 100 µM.

`CN1CCN(CCn2c3c4ccccc4ccc3c3oc(=O)c4ccccc4c32)CC1` gave a TGI (HOP-18 NSCLC) of 25.1 µM, a TGI (SK-OV-3 ovarian) of 27.4 µM and a GI50 (RPMI-8226 leukemia) of 1.84 µM. The TGI (RPMI-8226 leukemia) was 3.79 µM and 15 µM, the GI50 (M14 melanoma) was 1.94 µM and the TGI (M14 melanoma) was 3.43 µM and 3.29 µM. For the same compound, the GI50 (KM12 colon) was 2.13 µM, the TGI (KM12 colon) was 4.54 µM and 6.56 µM and the TGI (SR leukemia) was 3.13 µM. The GI50 (SK-MEL-28 melanoma) was 1.99 µM, the TGI (SK-MEL-28 melanoma) was 3.47 µM and 9.37 µM and the GI50 (HOP-62 NSCLC) was 10.1 µM. The TGI (HOP-62 NSCLC) was 4.65 µM and 23.7 µM, the TGI (NCI-H226 lung) was 33.5 µM and the TGI (PC-3 prostate) was 4.59 µM. The TGI (MDA-MB-435) was 3.35 µM, the TGI (HL-60(TB) leukemia) was 3.47 µM and the GI50 (RXF 393 renal) was 5.75 µM. The TGI (RXF 393 renal) was > 1 µM and 19.9 µM, the TGI (EKVX NSCLC) was 25.5 µM and the GI50 (HCT-116 colon) was 1.55 µM. For the same compound, the TGI (HCT-116 colon) was 2.88 µM and 3.79 µM, the TGI (MCF7 breast) was 3.03 µM and the GI50 (SN12C renal) was 4.44 µM. It also gave a TGI (SN12C renal) of 3.05 µM, a TGI (DLD-1 colon) of 6.13 µM and a TGI (MDA-MB-231 breast) of 3.59 µM. The TGI (OVCAR-4 ovarian) was 6.85 µM, the TGI (CAKI-1 renal) was 16.7 µM and the GI50 (SNB-19 CNS) was 1.5 µM. The TGI (SNB-19 CNS) was 7.24 µM and 10.9 µM, the TGI (LXFL 529 NSCLC) was 8.07 µM and the GI50 (UACC-62 melanoma) was 2.14 µM. For the same compound, the TGI (UACC-62 melanoma) was 4.74 µM and 5.11 µM, the GI50 (HT29 colon) was 1.65 µM and the TGI (HT29 colon) was 3.3 µM and 2.71 µM. It also gave a GI50 (SF-268 CNS) of 5.03 µM, a TGI (SF-268 CNS) of 14 µM and a GI50 (COLO 205 colon) of 2 µM. For the same compound, the TGI (COLO 205 colon) was 3.4 µM and 5.14 µM, the TGI (MDA-N) was 2.95 µM and the GI50 (NCI-H522 lung) was 1.68 µM. For the same compound, the TGI (NCI-H522 lung) was 3.29 µM and 10.4 µM, the TGI (M19-MEL melanoma) was 24.7 µM and the GI50 (SF-295 CNS) was 1.88 µM. The TGI (SF-295 CNS) was 4.5 µM and 9.45 µM, the TGI (OVCAR-5 ovarian) was 10.4 µM and the GI50 (HCT-15 colon) was 1.61 µM. For the same compound, the TGI (HCT-15 colon) was 3.21 µM and 7.92 µM, the GI50 (UACC-257 melanoma) was > 1 µM and the TGI (UACC-257 melanoma) was > 1 µM and 2.96 µM. For the same compound, the TGI (SNB-78 CNS) was 16.4 µM, the GI50 (NCI-H23 lung) was 1.92 µM and the TGI (NCI-H23 lung) was 3.72 µM and 15.7 µM. For the same compound, the GI50 (UO-31 renal) was 3.08 µM, the TGI (UO-31 renal) was 11.9 µM and the TGI (SF-539 CNS) was 3.47 µM and 3.08 µM. The GI50 (786-0 renal) was 1.96 µM, the TGI (786-0 renal) was 3.76 µM and 4.07 µM and the TGI (MALME-3M melanoma) was 29.3 µM. The TGI (DMS 114 small cell lung) was 3.84 µM, the TGI (OVCAR-3 ovarian) was 23.7 µM and the TGI (SNB-75 CNS) was 16.6 µM. The GI50 (OVCAR-8 ovarian) was 2.32 µM, the TGI (OVCAR-8 ovarian) was 5.13 µM and 3.37 µM and the GI50 (LOX IMVI melanoma) was 1.61 µM and 4.84 µM. The TGI (RXF-631 renal) was 17.8 µM, the GI50 (IGROV1 ovarian) was > 1 µM and the TGI (IGROV1 ovarian) was > 1 µM and 31.1 µM. For the same compound, the GI50 (HOP-92 NSCLC) was 3.44 µM, the TGI (HOP-92 NSCLC) was 17 µM and the TGI (K-562 leukemia) was 2.89 µM and 4.29 µM. It also gave a TGI (TK-10 renal) of 22.5 µM, a TGI (SK-MEL-5 melanoma) of 3.41 µM and a GI50 (HCC-2998 colon) of 4.22 µM. For the same compound, the TGI (HCC-2998 colon) was 3.74 µM and 18.7 µM, the GI50 (A498 renal) was 18.7 µM and the TGI (A498 renal) was 38.3 µM. The TGI (MOLT-4 leukemia) was 3.2 µM and 4.38 µM, the TGI (KM20L2 colon) was 7.79 µM and the TGI (ACHN renal) was 7.42 µM. The TGI (SW-620 colon) was 4.29 µM and 5.33 µM, the TGI (U251 CNS) was 6.25 µM and 6.92 µM and the GI50 (NCI-H460 lung) was 1.46 µM. For the same compound, the TGI (NCI-H460 lung) was 4.09 µM and 2.95 µM, the GI50 (A549 NSCLC) was 2.91 µM and the TGI (A549 NSCLC) was 8.92 µM and 8.94 µM. The TGI (CCRF-CEM leukemia) was 3.2 µM and 3.94 µM and the TGI (SK-MEL-2 melanoma) was 27.7 µM.
